*1 amine or outer side, *2 acyl side, *3 side chain or, on linkers, in order; H or OH if unused. Where a SMILES comes first, the peptide text is derived from it. [ ]: non-standard residue; d: D form. The star is where a group is joined. Benzenesulfonyl(4-Cl,3-CF3) = O=S(=O)(c1ccc(Cl)c(C(F)(F)F)c1)*; γGlu = O=C(O)[C@H](CCC(=O)[*:2])N[*:1]; β3hP = O=C(O)C[C@@H]1CCCN1
Key:
Matrilysin = target: T1, Matrilysin (Homo sapiens, UniProt P09237); experiment: Inhibition of human recombinant MMP-7 (Leu18 to Lys267 residues) using MOCAc-Pro-Leu-Gly-Leu-A2pr(Dnp)-Ala-Arg-NH2 as fluorogenic substrate preincubated for 15 mins followed by substrate addition by fluorescence based analysis
T1 sequence (P09237 whole entry): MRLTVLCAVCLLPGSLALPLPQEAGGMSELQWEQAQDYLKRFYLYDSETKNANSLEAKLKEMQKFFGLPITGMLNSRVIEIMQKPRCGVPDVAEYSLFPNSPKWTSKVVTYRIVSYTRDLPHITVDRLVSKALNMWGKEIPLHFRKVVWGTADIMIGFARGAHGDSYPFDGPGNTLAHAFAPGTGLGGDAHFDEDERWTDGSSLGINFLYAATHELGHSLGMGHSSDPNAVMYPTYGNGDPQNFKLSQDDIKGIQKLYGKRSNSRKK

[1] = target: Macrophage metalloelastase (Homo sapiens, UniProt P39900); experiment: Inhibition of human recombinant MMP-12 (Leu17 to Cys470 residues) using MOCAc-Pro-Leu-Gly-Leu-A2pr(Dnp)-Ala-Arg-NH2 as fluorogenic substrate preincubated for 15 mins followed by substrate addition by fluorescence based analysis
Neutrophil collagenase = Neutrophil collagenase (Homo sapiens, UniProt P22894); experiment: Inhibition of human recombinant MMP-8 (Phe21 to Gly467 residues) using MOCAc-Pro-Leu-Gly-Leu-A2pr(Dnp)-Ala-Arg-NH2 as fluorogenic substrate preincubated for 15 mins followed by substrate addition by fluorescence based analysis
[2] = target: Matrix metalloproteinase-9 (Homo sapiens, UniProt P14780); experiment: Inhibition of human recombinant MMP-9 (Ala20 to Asp707 residues) using MOCAc-Pro-Leu-Gly-Leu-A2pr(Dnp)-Ala-Arg-NH2 as fluorogenic substrate preincubated for 15 mins followed by substrate addition by fluorescence based analysis
Homo sapiens [3] = species: Homo sapiens; experiment: Selectivity index, ratio of IC50 for human recombinant MMP-14 to IC50 for human recombinant MMP-7
[4] = target: Matrix metalloproteinase-14 (Homo sapiens, UniProt P50281); experiment: Inhibition of human recombinant C-terminal 10-His tagged MMP-14 ( Ala21 to Gly284 residues) using MOCAc-Lys-Pro-Leu-Gly-Leu-A2pr(Dnp)-Ala-Arg-NH2 as fluorogenic substrate preincubated for 15 mins followed by substrate addition by fluorescence based analysis
[5] = target: 72 kDa type IV collagenase (Homo sapiens, UniProt P08253); experiment: Inhibition of human recombinant MMP-2 ( Ile34 to Cys660 residues) using MOCAc-Pro-Leu-Gly-Leu-A2pr(Dnp)-Ala-Arg-NH2 as fluorogenic substrate preincubated for 15 mins followed by substrate addition by fluorescence based analysis
[6] = Stability in human liver microsomes at 1 uM incubated for 15 mins by liquid chromatography-mass spectrometry; type: ADME, Microsome; conditions: 0.25 h
[7] = Stability in human serum incubated for 4 hrs by liquid chromatography-tandem mass spectrometry; type: ADME, cell-free
Collagenase 3 = Collagenase 3 (Homo sapiens, UniProt P45452); experiment: Inhibition of human recombinant MMP-13 (Leu20 to Cys471 residues) using MOCAc-Pro-Leu-Gly-Leu-A2pr(Dnp)-Ala-Arg-NH2 as fluorogenic substrate preincubated for 15 mins followed by substrate addition by fluorescence based analysis
Homo sapiens [8] = species: Homo sapiens; experiment: Selectivity index, ratio of IC50 for human recombinant MMP-12 to IC50 for human recombinant MMP-7
Stromelysin-1 = Stromelysin-1 (Homo sapiens, UniProt P08254); experiment: Inhibition of human recombinant MMP-3 (Tyr18 to Cys477 residues ) using MOCAc-Arg-Pro-Lys-Pro-Val-Glu-Nva-Trp-Arg-Lys(Dnp)-NH2 as fluorogenic substrate preincubated for 15 mins followed by substrate addition by fluorescence based analysis
Interstitial collagenase = target: T2, Interstitial collagenase (Homo sapiens, UniProt P03956); experiment: Inhibition of human recombinant MMP-1 (Phe20 to Asn469 residue) using MOCAc-Lys-Pro-Leu-Gly-Leu-A2pr(Dnp)-Ala-Arg-NH2 as fluorogenic substrate preincubated for 15 mins followed by substrate addition by fluorescence based analysis
T2 sequence (P03956 whole entry): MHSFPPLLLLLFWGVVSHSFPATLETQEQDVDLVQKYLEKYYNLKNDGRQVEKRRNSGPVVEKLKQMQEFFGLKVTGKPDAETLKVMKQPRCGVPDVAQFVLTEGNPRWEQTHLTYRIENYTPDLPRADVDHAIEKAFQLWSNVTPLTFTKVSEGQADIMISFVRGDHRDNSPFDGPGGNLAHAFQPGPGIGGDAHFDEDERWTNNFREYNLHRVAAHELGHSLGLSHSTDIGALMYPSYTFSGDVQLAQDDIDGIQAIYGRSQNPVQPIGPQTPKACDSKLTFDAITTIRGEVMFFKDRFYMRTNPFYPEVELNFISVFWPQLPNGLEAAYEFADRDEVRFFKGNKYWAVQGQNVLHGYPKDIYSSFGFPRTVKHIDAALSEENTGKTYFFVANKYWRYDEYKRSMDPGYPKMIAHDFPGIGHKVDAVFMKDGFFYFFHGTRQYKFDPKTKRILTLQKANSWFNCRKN

Chain of Matrix metalloproteinase-9 (P14780 whole entry): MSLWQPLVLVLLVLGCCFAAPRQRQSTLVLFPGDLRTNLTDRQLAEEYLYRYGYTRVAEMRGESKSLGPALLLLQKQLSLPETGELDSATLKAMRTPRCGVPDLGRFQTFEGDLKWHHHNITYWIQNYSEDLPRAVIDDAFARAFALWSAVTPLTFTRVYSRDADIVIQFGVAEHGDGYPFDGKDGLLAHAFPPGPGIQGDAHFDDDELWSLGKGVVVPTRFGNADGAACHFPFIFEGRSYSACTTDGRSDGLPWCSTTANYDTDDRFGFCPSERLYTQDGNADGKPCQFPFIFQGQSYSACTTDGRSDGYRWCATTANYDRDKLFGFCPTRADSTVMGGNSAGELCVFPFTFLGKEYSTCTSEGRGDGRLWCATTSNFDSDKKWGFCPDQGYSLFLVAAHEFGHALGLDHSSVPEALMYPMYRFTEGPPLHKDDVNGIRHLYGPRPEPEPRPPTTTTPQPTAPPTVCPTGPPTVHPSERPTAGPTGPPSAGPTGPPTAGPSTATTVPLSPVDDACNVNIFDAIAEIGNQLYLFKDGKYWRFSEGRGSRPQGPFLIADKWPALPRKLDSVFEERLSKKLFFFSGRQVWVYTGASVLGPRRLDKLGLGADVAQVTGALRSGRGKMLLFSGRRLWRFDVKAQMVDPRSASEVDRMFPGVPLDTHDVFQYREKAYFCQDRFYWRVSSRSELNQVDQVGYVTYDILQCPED
Chain of 72 kDa type IV collagenase (P08253 whole entry): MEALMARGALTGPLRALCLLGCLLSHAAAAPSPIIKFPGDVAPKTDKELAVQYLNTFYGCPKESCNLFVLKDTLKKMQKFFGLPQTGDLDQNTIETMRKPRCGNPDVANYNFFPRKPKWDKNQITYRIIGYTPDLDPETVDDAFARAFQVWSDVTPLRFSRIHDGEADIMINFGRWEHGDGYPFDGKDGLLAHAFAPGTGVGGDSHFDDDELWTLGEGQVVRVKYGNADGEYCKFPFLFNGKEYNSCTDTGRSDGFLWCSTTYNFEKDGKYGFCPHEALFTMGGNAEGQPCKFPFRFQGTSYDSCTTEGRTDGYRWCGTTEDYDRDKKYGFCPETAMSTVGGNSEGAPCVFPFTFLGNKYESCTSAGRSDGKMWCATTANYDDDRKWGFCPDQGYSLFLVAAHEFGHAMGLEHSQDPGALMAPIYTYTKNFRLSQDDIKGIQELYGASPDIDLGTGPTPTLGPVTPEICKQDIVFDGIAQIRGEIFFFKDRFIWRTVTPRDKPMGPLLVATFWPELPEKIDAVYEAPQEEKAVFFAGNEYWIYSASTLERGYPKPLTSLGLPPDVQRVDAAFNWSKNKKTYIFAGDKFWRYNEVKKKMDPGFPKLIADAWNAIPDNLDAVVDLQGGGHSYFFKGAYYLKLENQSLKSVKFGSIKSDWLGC
Chain of Neutrophil collagenase (P22894 whole entry): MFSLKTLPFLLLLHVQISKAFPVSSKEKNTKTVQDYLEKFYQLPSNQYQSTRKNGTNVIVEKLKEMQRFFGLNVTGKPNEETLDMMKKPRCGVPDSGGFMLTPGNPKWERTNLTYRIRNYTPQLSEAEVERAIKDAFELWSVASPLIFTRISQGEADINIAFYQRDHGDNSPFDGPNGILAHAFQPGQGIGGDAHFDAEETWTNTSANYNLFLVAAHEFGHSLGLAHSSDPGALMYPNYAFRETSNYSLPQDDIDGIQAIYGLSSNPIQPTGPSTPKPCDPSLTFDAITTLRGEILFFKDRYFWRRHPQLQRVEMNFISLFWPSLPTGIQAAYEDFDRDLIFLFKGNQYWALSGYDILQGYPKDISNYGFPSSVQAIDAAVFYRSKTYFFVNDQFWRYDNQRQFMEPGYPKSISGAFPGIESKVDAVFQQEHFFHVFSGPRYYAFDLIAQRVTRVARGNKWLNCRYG
Chain of Macrophage metalloelastase (P39900 whole entry): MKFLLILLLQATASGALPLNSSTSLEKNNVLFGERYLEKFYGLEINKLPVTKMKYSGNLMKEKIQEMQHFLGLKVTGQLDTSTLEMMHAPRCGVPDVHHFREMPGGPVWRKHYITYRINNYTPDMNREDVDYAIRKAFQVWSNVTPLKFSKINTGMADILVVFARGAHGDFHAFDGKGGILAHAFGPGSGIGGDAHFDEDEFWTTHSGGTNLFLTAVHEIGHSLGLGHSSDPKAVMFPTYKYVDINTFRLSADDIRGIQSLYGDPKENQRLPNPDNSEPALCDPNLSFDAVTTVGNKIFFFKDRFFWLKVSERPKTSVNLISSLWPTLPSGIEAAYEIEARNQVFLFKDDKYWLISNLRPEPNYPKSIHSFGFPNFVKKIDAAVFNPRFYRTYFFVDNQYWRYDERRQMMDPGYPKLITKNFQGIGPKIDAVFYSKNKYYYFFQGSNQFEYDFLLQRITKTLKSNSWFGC
Chain of Stromelysin-1 (P08254 whole entry): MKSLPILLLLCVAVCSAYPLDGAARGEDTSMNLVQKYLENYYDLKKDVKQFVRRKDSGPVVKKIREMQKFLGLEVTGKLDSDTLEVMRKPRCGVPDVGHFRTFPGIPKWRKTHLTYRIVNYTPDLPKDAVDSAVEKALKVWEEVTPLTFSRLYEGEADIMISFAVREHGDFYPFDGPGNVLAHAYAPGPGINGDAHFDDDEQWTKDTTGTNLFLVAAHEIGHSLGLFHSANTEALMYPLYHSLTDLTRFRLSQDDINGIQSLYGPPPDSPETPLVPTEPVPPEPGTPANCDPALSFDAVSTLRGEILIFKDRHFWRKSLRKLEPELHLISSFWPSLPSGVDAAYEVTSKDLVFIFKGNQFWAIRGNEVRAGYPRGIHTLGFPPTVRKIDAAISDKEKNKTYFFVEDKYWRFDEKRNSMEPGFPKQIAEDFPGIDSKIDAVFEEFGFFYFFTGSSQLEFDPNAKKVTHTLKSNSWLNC

| Structure (SMILES) | IC50 (Matrilysin) [nM] | IC50 [1] [µM] | IC50 (Neutrophil collagenase) [µM] | IC50 [2] [µM] | IC50 [4] [µM] | IC50 [5] [µM] | IC50 (Collagenase 3) [µM] | IC50 (Stromelysin-1) [µM] | further results |
| --- | --- | --- | --- | --- | --- | --- | --- | --- | --- |
| CC(C)C[C@H](NC(=O)CNC(=O)CC[C@H](NS(=O)(=O)c1ccc(Cl)c(C(F)(F)F)c1)C(=O)O)C(=O)N[C@H](C(=O)N1CCC[C@H]1C(N)=O)C(C)C ({Benzenesulfonyl(4-Cl,3-CF3)-γGlu}-GLVP-NH2) | 19 | – | – | – | – | – | – | – | – |
| CC(C)C[C@H](NC(=O)CNC(=O)CC[C@H](NS(=O)(=O)c1ccc(Cl)c(C(F)(F)F)c1)C(=O)O)C(=O)N[C@H](C(=O)N1CCC[C@H]1CC(N)=O)C(C)C ({Benzenesulfonyl(4-Cl,3-CF3)-γGlu}-GLV[β3hP]-NH2) | 10 | 2.9 | 59 | > 100 | 0.45 | 11 | > 100 | > 100 | Ratio IC50 (Homo sapiens [3]): 45; Stability [6]: Stable; Stability [7]: Stable; Ratio IC50 (Homo sapiens [8]): 290 |
| CC(C)C[C@H](NC(=O)CNC(=O)CC[C@H](NS(=O)(=O)c1ccc(Cl)c(C(F)(F)F)c1)C(=O)O)C(=O)N[C@H](C(=O)N[C@@H](C)C(N)=O)C(C)C ({Benzenesulfonyl(4-Cl,3-CF3)-γGlu}-GLVA-NH2) | 16 | 12 | > 100 | > 100 | 11 | 33 | > 100 | > 100 | Stability [6]: Stable; Stability [7]: Stable; IC50 (Interstitial collagenase): > 100 µM |
| O=C(O)[C@H](CCc1ccccc1)NS(=O)(=O)c1ccc(Cl)c(C(F)(F)F)c1 | 6100 | > 100 | > 100 | > 100 | > 100 | > 100 | > 100 | > 100 | IC50 (Interstitial collagenase): > 100 µM |
| CSCC[C@H](NC(=O)[C@H](CC(C)C)NC(=O)[C@H](CCC(N)=O)NC(=O)CC[C@H](NS(=O)(=O)c1ccc(Cl)c(C(F)(F)F)c1)C(=O)O)C(N)=O | 1300 | – | – | – | – | – | – | – | – |
| CSCC[C@H](NC(=O)[C@H](CC(C)C)NC(=O)[C@H](C)NC(=O)CC[C@H](NS(=O)(=O)c1ccc(Cl)c(C(F)(F)F)c1)C(=O)O)C(N)=O | 440 | 40 | > 100 | > 100 | > 100 | > 100 | > 100 | > 100 | – |
| CSCC[C@H](NC(=O)[C@H](CC(C)C)NC(=O)[C@H](CC(N)=O)NC(=O)CC[C@H](NS(=O)(=O)c1ccc(Cl)c(C(F)(F)F)c1)C(=O)O)C(N)=O | 7500 | – | – | – | – | – | – | – | – |
| CSCC[C@H](NC(=O)[C@H](C)NC(=O)[C@H](C)NC(=O)CC[C@H](NS(=O)(=O)c1ccc(Cl)c(C(F)(F)F)c1)C(=O)O)C(N)=O | 6700 | – | – | – | – | – | – | – | – |
| CSCC[C@H](NC(=O)[C@H](CC(C)C)NC(=O)[C@H](CC(C)C)NC(=O)CC[C@H](NS(=O)(=O)c1ccc(Cl)c(C(F)(F)F)c1)C(=O)O)C(N)=O | 780 | – | – | – | – | – | – | – | – |
| CSCC[C@H](NC(=O)[C@H](CC(C)C)NC(=O)[C@H](C)NC(=O)C[C@H](NS(=O)(=O)c1ccc(Cl)c(C(F)(F)F)c1)C(=O)O)C(N)=O | 4700 | – | – | – | – | – | – | – | – |
| CSCC[C@H](NC(=O)[C@H](CC(C)C)NC(=O)[C@H](CO)NC(=O)CC[C@H](NS(=O)(=O)c1ccc(Cl)c(C(F)(F)F)c1)C(=O)O)C(N)=O | 5700 | – | – | – | – | – | – | – | – |
| CSCC[C@H](NC(=O)[C@H](CC(C)C)NC(=O)CNC(=O)CC[C@H](NS(=O)(=O)c1ccc(Cl)c(C(F)(F)F)c1)C(=O)O)C(N)=O | 120 | 20 | > 100 | > 100 | 25 | 73 | > 100 | > 100 | – |
| CC(C)C[C@H](NC(=O)CNC(=O)CC[C@H](NS(=O)(=O)c1ccc(Cl)c(C(F)(F)F)c1)C(=O)O)C(=O)N[C@H](C(N)=O)C(C)C | 56 | 28 | > 100 | > 100 | 17 | 45 | > 100 | > 100 | IC50 (Interstitial collagenase): > 100 µM |
| CC(C)C[C@H](NC(=O)[C@H](C)NC(=O)CC[C@H](NS(=O)(=O)c1ccc(Cl)c(C(F)(F)F)c1)C(=O)O)C(=O)N[C@@H](C)C(N)=O | 1700 | – | – | – | – | – | – | – | – |
| CSCC[C@H](NC(=O)[C@H](Cc1ccccc1)NC(=O)CNC(=O)CC[C@H](NS(=O)(=O)c1ccc(Cl)c(C(F)(F)F)c1)C(=O)O)C(N)=O | 110 | – | – | – | – | – | – | – | – |

From ChEMBL document CHEMBL5104183, “Discovery of Highly Potent and Selective Matrix Metalloproteinase-7 Inhibitors by Hybridizing the S1' Subsite Binder with Short Peptides” (J Med Chem, 2022)
